Source: article PMC3757929 (Molecular pharmaceutics, 2013)
Read-outs that look alike come from different tables or passages of the source.

Experiments:
[1] = target: T1, prostate specific membrane antigen (PSMA) (Homo sapiens, UniProt Q04609); experiment: competitive binding on LNCaP cells with […]-GPI radioligand; type: cell-based
[2] = target: T1, prostate specific membrane antigen (PSMA); experiment: as above; type: cell-based; remark: listed apart in the source

T1 sequence (Q04609 whole entry): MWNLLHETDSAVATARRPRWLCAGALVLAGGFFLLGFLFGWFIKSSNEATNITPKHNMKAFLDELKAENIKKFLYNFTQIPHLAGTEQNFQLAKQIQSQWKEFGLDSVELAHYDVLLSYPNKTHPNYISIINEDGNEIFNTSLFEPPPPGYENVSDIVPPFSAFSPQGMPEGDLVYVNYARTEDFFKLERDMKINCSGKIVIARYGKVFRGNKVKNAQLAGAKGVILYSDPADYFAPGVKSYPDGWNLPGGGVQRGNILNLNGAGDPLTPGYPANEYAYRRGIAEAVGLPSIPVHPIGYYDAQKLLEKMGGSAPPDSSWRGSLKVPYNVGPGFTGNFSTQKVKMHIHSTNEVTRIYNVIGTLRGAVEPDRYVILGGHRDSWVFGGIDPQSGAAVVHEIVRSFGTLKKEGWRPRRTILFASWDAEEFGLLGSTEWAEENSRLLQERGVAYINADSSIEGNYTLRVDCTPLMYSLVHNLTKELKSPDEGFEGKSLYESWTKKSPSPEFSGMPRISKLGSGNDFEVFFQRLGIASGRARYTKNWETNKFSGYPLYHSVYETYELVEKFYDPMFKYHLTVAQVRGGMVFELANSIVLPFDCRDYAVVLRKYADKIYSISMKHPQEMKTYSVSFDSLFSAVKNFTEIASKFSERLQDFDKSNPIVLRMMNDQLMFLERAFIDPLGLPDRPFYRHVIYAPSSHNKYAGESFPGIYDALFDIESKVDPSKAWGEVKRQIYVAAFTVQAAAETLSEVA

IC50 [1] [nM]	Structure (SMILES)	IC50 [2] [nM]
460 ± 13	NC(CCP(=O)(O)CC(CCC(=O)O)C(=O)O)C(=O)O (racemic) [GPI, 2[(3-amino-3-carboxypropyl)(hydroxy)(phosphinyl)-methyl]pentane-1,5-dioic acid]	–
–	O=C(O)CCC(CP(=O)(O)CCC(NC(=O)CCC(C(=O)O)N1CCCN2CCN(CCCN(CC(=O)O)CC2)CC1)C(=O)O)C(=O)O (racemic) [H2CBT1G]	578 ± 81
–	O=C(O)CCC(CP(=O)(O)CCC(NC(=O)CCC(C(=O)O)N1CCCN2CCN(CCCN(C(CCC(=O)NC(CCP(=O)(O)CC(CCC(=O)O)C(=O)O)C(=O)O)C(=O)O)CC2)CC1)C(=O)O)C(=O)O (racemic) [H2CBT2G]	129 ± 17
